# From PubChem BioAssay (NCI)
#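 Results reflect a 48-hour exposure of cells in 96-well plates to compound at five concentrations. Here, GI50 denotes the concentration required for 50% inhibition of growth. TGI is the concentration that stops growth completely.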 Where a SMILES comes first, the peptide text is derived from it. [ ]: non-standard residue; d: D form. The star is where a group is joined. mTyr = N[CH](Cc1cccc(O)c1)C(=O)O; Cbz = O=C(OCc1ccccc1)*; OBn = c1ccc(CO*)cc1
# Experiments:
# Assay in all cases: growth of human tumour cells (NCI), 48 h
# CAKI-1 renal = system: CAKI-1 renal
# EKVX NSCLC = system: EKVX NSCLC
# HCC-2998 colon = system: HCC-2998 colon
# HOP-62 NSCLC = system: HOP-62 NSCLC
# MALME-3M melanoma = system: MALME-3M melanoma
# MOLT-4 leukemia = system: MOLT-4 leukemia
# NCI-H226 lung = system: NCI-H226 lung
# OVCAR-3 ovarian = system: OVCAR-3 ovarian
# OVCAR-5 ovarian = system: OVCAR-5 ovarian
# RPMI-8226 leukemia = system: RPMI-8226 leukemia
# SK-MEL-5 melanoma = system: SK-MEL-5 melanoma
# SN12C renal = system: SN12C renal
# SNB-19 CNS = system: SNB-19 CNS
# SW-620 colon = system: SW-620 colon
# MDA-N = system: MDA-N
# NCI/ADR-RES ovarian = system: NCI/ADR-RES ovarian
SMILES,TGI (CAKI-1 renal) [µM],TGI (EKVX NSCLC) [µM],TGI (HCC-2998 colon) [µM],TGI (HOP-62 NSCLC) [µM],TGI (MALME-3M melanoma) [µM],TGI (MOLT-4 leukemia) [µM],TGI (NCI-H226 lung) [µM],TGI (OVCAR-3 ovarian) [µM],TGI (OVCAR-5 ovarian) [µM],TGI (RPMI-8226 leukemia) [µM],TGI (SK-MEL-5 melanoma) [µM],TGI (SN12C renal) [µM],TGI (SNB-19 CNS) [µM],TGI (SW-620 colon) [µM],TGI (MDA-N) [µM],TGI (NCI/ADR-RES ovarian) [µM],GI50 (EKVX NSCLC) [nM],GI50 (MALME-3M melanoma) [nM],GI50 (MOLT-4 leukemia) [nM]
Cc1ccc(CC(C)N)cc1 (configuration not stated),> 100,> 100,> 100,> 100,> 100,> 100,> 100,> 100,> 100,> 100,> 100,> 100,> 100,> 100,,,,,
O=[As](O)(O)c1ccc(N=Nc2ccc(O)cc2)cc1,> 100,> 100,,> 100,> 100,17.1,> 100,> 100,> 100,> 100,> 100,> 100,> 100,> 100,> 100,> 100,,,
CC(C)(C)OC(=O)NCCC1CN(C(=O)c2ccccc2)c2ccccc21 (configuration not stated),> 100,> 100,> 100,83.2,80.9,74.4,,65.3,> 100,54.4,32,,> 100,> 100,48.4,57.5,,,
O=C(/C=C/c1csc(-c2ccccc2)n1)NCc1ccc(C(=O)NCc2ccccc2)cc1,> 100,> 100,> 100,32.8,> 100,> 100,> 100,> 100,> 100,> 100,> 100,> 100,88.7,> 100,,> 100,,,
CC(C)(C)c1cc(C2COC(c3cc(C(C)(C)C)c(O)c(C(C)(C)C)c3)CO2)cc(C(C)(C)C)c1O (configuration not stated),> 100,> 100,,> 100,> 100,,> 100,> 100,> 100,> 100,> 100,> 100,> 100,> 100,> 100,> 100,,,
COC(=O)C(Cc1cccc(O)c1)NC(=O)C(CC(=O)OCc1ccccc1)NC(=O)OCc1ccccc1 (configuration not stated) (Cbz-Asp(OBn)-[mTyr]-OMe; configuration not given here),,> 100,> 100,> 100,> 100,> 100,> 100,,> 100,> 100,> 100,> 100,> 100,> 100,> 100,,,,
CCOc1ccc(-n2nnc3c(N)nc(N)nc32)cc1,> 100,> 100,,> 100,> 100,> 100,> 100,> 100,> 100,> 100,> 100,> 100,> 100,> 100,> 100,> 100,,,
c1ccc(CSCCc2ccncc2)cc1,,> 100,> 100,> 100,> 100,> 100,> 100,> 100,> 100,> 100,> 100,> 100,> 100,> 100,> 100,> 100,,,
COC(=O)CC1NC(=O)C1C1(C)OCCO1 (configuration not stated),,> 100,> 100,> 100,> 100,,> 100,> 100,,> 100,> 100,> 100,> 100,> 100,,,,,
O=C1NC(=S)N(c2ccccc2)C1=O,> 100,> 100,> 100,> 100,> 100,> 100,> 100,,> 100,> 100,> 100,> 100,> 100,> 100,,> 100,,,
CCNC1=C(NC(=O)CC)C(=O)c2ccccc2C1=O,,> 100,> 100,> 100,60.1,> 100,> 100,> 100,> 100,> 100,> 100,> 100,> 100,> 100,> 100,> 100,,,
COc1cccc(NC(=O)C(C#N)=C(SC)SC)c1,> 100,> 100,> 100,> 100,> 100,> 100,> 100,,> 100,,> 100,> 100,> 100,> 100,> 100,> 100,,,
O=C(N/N=C/c1cc(Cl)cc(Cl)c1O)c1ccccc1O,,> 100,14.6,,11.6,> 100,,1.65,7.82,,5.38,23.3,43.7,21.5,,,1710,2800,375
Cc1ccc2c(=O)cc(-c3ccc(-c4ccccc4)s3)[nH]c2n1,> 100,> 81.4,,> 76.8,> 81.1,> 78.9,> 100,> 100,> 100,> 100,> 39.7,> 100,> 100,> 100,> 100,> 100,,,
O=C(Nc1cccc(F)c1)c1cc2ccc(O)cc2oc1=Nc1ccccc1F,15,6.17,28.7,24.6,18.6,24.7,,14.7,36.1,> 100,9.57,22.5,21,45.4,17.7,10.3,,,
COc1ccc(/C=C2\CN(C)C/C(=C\c3ccc(OC)c(OC)c3OC)C2=O)c(OC)c1OC,1.55,4.37,0.335,0.84,0.333,0.0574,2.49,0.335,0.656,0.211,0.705,0.449,1.2,0.425,1.25,,,,
